Test results reported in US9777015B2, “Useful thiophene derivatives in the treatment of diabetes” (METABRAIN RESEARCH, priority 2012, dated 2017).
Where two headings read alike, the source gives them in different places.

Experiments:
[1] = system: hepatocytes isolated from Wistar rat liver; test: Test of inhibition of hepatic production of glucose (isolated hepatocytes, 3 h or 20 h incubation); type: cell-based; details: for activity at 50 µM / activity at 100 µM: Rattus norvegicus, Hepatocyte, hepatic glucose production, rat hepatocytes; for activity at 50 µM: compound at 50 μM, read-out: HGP % of ctrl @ 50 μM; for activity at 100 µM: compound at 100 μM, read-out: HGP % of ctrl @ 100 μM
Experimental: The hepatocytes are isolated from Wistar rat liver having fasted for 24 h after perfusion of collagenase in the portal vein. The freshly isolated hepatocytes are sown in 6-well plates coated with collagen and containing an adhesion medium (Williams Medium). After adhesion, the medium is replaced with RPMI 1640 medium without any glucose, containing hydrocortisone (7.10^−5M) for a duration from 16 to 18 h. The next day, the glucose hepatic production test is conducted in a Krebs medium for 3 h. The basal conditions are cells incubated with only Krebs, the stimulated conditions are the cells placed in Krebs+lactate+pyruvate, the produced conditions are the cells exposed to chemical compounds in a Krebs/lactate/pyruvate medium. In the case when the compounds are dissolved in DMSO, all the conditions of the tests are met in the presence of a final concentration of 0.1% DMSO. The positive control of the test is the mercaptopicolinate known for its inhibitory action on hepatic production of glucose via the phosphoenolpyruvate carboxykinase. For short term treatments, the compounds are incubated for 3 h. For long term treatments, the compounds are incubated for 20 h at the moment when the hepatocytes are cultivated in RPMI and then added during the hepatic production test for 3 h. At the end of the 3 hours of incubation, the supernatant is recovered for measurement of glucose with a colorimetric method using glucose oxidase. The cells are lysed with a 0.1% NaOH aqueous solution in order to measure the amount of protein with the Lowry method. The results are expressed in mmols of glucose per mg of protein.

INS-1 cells = test: Stimulation test of insulin secretion by INS-1 cells; type: cell-based; details: Rattus norvegicus, 1 h incubation, 3.5 mM glucose; for activity at 10 µM: INS1, compound at 10 μM, read-out: INS-1 % of ctrl @ 10 μM; for activity at 50 µM: INS1, compound at 50 μM, read-out: INS-1 % of ctrl @ 50 μM
Experimental: The different compounds were tested on an INS-1 beta-pancreatic line in order to evaluate their capability of potentializing the insulin secretion in response to glucose. Very briefly, the cells are cultivated in a culture medium, RPMI 1640 with 10 mM glucose containing 1 mM of sodium pyruvate, 50 μM of 2-mercaptoethanol, 2 mM of glutamine, 10 mM of HEPES, 100 IU/mL of penicillin, 100 μg/mL of streptomycin and 10% of inactivated fetal calf serum, as described by Asfari et al.. For the insulin secretion test, the INS-1 cells are sown and cultivated in 96-well plates. After 3 days of cultivation at 37° C. in a humid atmosphere (95% air/5% CO2), the medium is removed and the cells are incubated for 16 h in a medium containing 5 mM of glucose and 1% of inactivated fetal calf serum. On the day of the test, the cells are washed with a Krebs buffer (pH 7.4) containing 0.1% of bovine albumin and then pre-incubated for 30 min at 37° C. in this same buffer containing 2.8 mM of glucose. Finally, the cells are again washed with Krebs buffer and then incubated for 1 h in the buffer of the secretion test (Krebs, pH 7.4 containing 0.1% of bovine albumin and 3.5 mM of glucose and molecules to be evaluated). At the end of the test, the cell supernatant is recovered in order to measure therein the secreted insulin, by means of an ELISA kit using a rat anti-insulin antibody (ELISA Alpco Cat no. 80-INSRTH-E10). Each condition is tested in triplicate. The 3.5 mM glucose, the 10^−7M GLP-1 and the Forskoline 10^−7/IBMX 10^−5M mixtures are used as positive controls of the test. A compound stimulates the secretion of insulin if this factor is greater than or equal to 130% of the control for a given glucose dose.

Row | Compound | activity at 10 µM (INS-1 cells) [%] | activity at 50 µM (INS-1 cells) [%] | further results
1 | CCOC(=O)Cc1cc(C(=O)c2ccco2)sc1-c1ccc(Cl)c(Cl)c1 [compound 158, ethyl 2-[2-(3,4-dichlorophenyl)-5-(furan-2-carbonyl)-3-thienyl]acetate] | 132 | 201 | inhibition of hepatic production of glucose ([1]; 3 h incubation, at the dose of 50 μM): strongest inhibitions; activity at 50 µM ([1]; 3 h, 3 h incubation): 59%
2 | CCOC(=O)Cc1cc(C(=O)N2CCOCC2)sc1-c1ccc(Cl)cc1 [compound 114, ethyl 2-(2-(4-chlorophenyl)-5-(morpholine-4-carbonyl)thiophen-3-yl)acetate] | 150 |  | 
3 | CCOC(=O)Cc1cc(/C(=N/O)c2ccc(OC)cc2)sc1-c1ccc(Cl)cc1 [compound 104, ethyl 2-(2-(4-chlorophenyl)-5-((hydroxyimino)(4-methoxyphenyl)methyl)thiophen-3-yl)acetate] | 153 | 203 | activity at 50 µM ([1]; 20 h, 20 h incubation): 76%; activity at 100 µM ([1]; 20 h, 20 h incubation): 50%
4 | C=C(C(=O)OCC)c1cc(C(=O)c2ccc(OC)cc2)sc1-c1ccc(Cl)cc1 [compound 187, ethyl 2-(2-(4-chlorophenyl)-5-(4-methoxybenzoyl)thiophen-3-yl)acrylate] | 152 | 120 | 
5 | N#CCc1cc(C(=O)c2ccco2)sc1-c1ccc(F)cc1 [compound 145, 2-(2-(4-fluorophenyl)-5-(furan-2-carbonyl)thiophen-3-yl)acetonitrile] | 125 | 145 | 
6 | COc1ccc(-c2sc(C(=O)c3cccc(OC)c3)cc2CC(=O)OCC2O[C@H]3OC(C)(C)O[C@H]3[C@H]3OC(C)(C)O[C@@H]23)cc1 (stereo partly drawn) [compound 85, ((3aS,5aS,8aS,8bS)-2,2,7,7-tetramethyltetrahydro-3aH-bis([1,3]dioxolo)[4,5-b:4′,5′-d]pyran-5-yl)methyl 2-(5-(3-methoxy-benzoyl)-2-(4-methoxy-phenyl)thiophen-3-yl)acetate] | 146 |  | 
7 | COC(=O)Cc1cc(C(=O)c2ccccn2)sc1-c1ccc(Cl)cc1 [compound 148] | 134 | 189 | activity at 50 µM ([1]; 3 h, 3 h incubation): 80%; activity at 100 µM ([1]; 3 h, 3 h incubation): 49%
8 | CC(C)OC(=O)Cc1cc(C(=O)c2ccco2)sc1-c1ccc(Cl)cc1 [compound 44, isopropyl 2-(2-(4-chlorophenyl)-5-(furan-2-carbonyl)thiophen-3-yl)acetate] | 180 | 223 | activity at 50 µM ([1]; 3 h, 3 h incubation): 83%; activity at 100 µM ([1]; 3 h, 3 h incubation): 69%; activity at 50 µM ([1]; 20 h, 20 h incubation): 71%; activity at 100 µM ([1]; 20 h, 20 h incubation): 61%
9 | CCOC(=O)Cc1cc(C(=O)c2cccc(OC)c2)sc1-c1ccc(OC)cc1 [compound 30, ethyl 2-(5-(3-methoxybenzoyl)-2-(4-methoxyphenyl)thiophen-3-yl)acetate] | 157 |  | 
10 | CCOC(=O)C(C)c1cc(C(=O)c2ccc(OC)cc2)sc1-c1ccc(Cl)cc1 (stereo not drawn) [compound 123, ethyl 2-(2-(4-chlorophenyl)-5-(4-methoxybenzoyl)thiophen-3-yl)propanoate] | 168 | 166 | activity at 50 µM ([1]; 3 h, 3 h incubation): 101%; activity at 100 µM ([1]; 3 h, 3 h incubation): 63%
11 | CCOC(=O)Cc1cc(C(=O)c2cscn2)sc1-c1ccc(OC)cc1 [compound 33, ethyl 2-(2-(4-methoxyphenyl)-5-(thiazole-4-carbonyl)thiophen-3-yl)acetate] | 199 | 280 | 
12 | CCOC(=O)Cc1cc(C(=O)c2ccco2)sc1-c1cccc(F)c1F [compound 130, ethyl 2-(2-(2,3-difluorophenyl)-5-(furan-2-carbonyl)thiophen-3-yl)acetate] | 179 | 323 | inhibition of hepatic production of glucose ([1]; 20 h incubation, with two doses): strongest inhibitions; activity at 50 µM ([1]; 20 h, 20 h incubation): 53%; activity at 100 µM ([1]; 20 h, 20 h incubation): 40%
13 | COCC(C(=O)OC(C)C)c1cc(C(=O)c2ccc(OC)cc2)sc1-c1ccc(Cl)cc1 (stereo not drawn) [compound 125] | 154 | 126 | 
14 | O=C(c1ccco1)c1cc(CC(=O)N2CCOCC2)c(-c2ccc(Cl)cc2)s1 [compound 91, 2-(2-(4-chlorophenyl)-5-(furan-2-carbonyl)thiophen-3-yl)-1-morpholino ethanone] | 184 | 152 | 
15 | CN(C)CCNC(=O)Cc1cc(C(=O)c2ccco2)sc1-c1ccc(Cl)cc1 [compound 95, 2-(2-(4-chlorophenyl)-5-(furan-2-carbonyl)thiophen-3-yl)-N-(2-(dimethylamino)ethyl)acetamide] | 144 | 147 | 
16 | CCOC(=O)Cc1cc(C(=O)c2ccccc2)sc1-c1ccc(Cl)cc1 [compound 15, ethyl 2-(5-benzoyl-2-(4-chloro-phenyl)thiophen-3-yl)acetate] | 150 | 160 | activity at 50 µM ([1]; 20 h, 20 h incubation): 63%; activity at 100 µM ([1]; 20 h, 20 h incubation): 32%
17 | CCOC(=O)Cc1cc(C(=O)CCCCl)sc1-c1ccc(OC)cc1 [compound 37, ethyl 2-(5-(4-chlorobutanoyl)-2-(4-methoxyphenyl)thiophen-3-yl)acetate] | 157 | 107 | 
18 | COc1ccc(C(=O)c2cc(CC(=O)NCCN(C)C)c(-c3ccc(Cl)cc3)s2)cc1 [compound 89, 2-(2-(4-chlorophenyl)-5-(4-methoxybenzoyl)thiophen-3-yl)-N-(2-(dimethylamino)ethyl)acetamide] | 171 |  | 
19 | CCOC(=O)Cc1cc(C(=O)c2ccco2)sc1-c1ccc(OC)cc1 [compound 22, ethyl 2-(5-(furan-2-carbonyl)-2-(4-methoxyphenyl)thiophen-3-yl)acetate] | 152 | 207 | 
20 | N#Cc1ccc(-c2sc(C(=O)c3ccco3)cc2CC(=O)O)cc1 [compound 140, 2-(2-(4-cyanophenyl)-5-(furan-2-carbonyl)thiophen-3-yl)acetic acid] | 123 | 188 | 
21 | CCOC(=O)Cc1cc(C(=O)c2ccco2)sc1-c1ccc(C#N)cc1 [compound 139, ethyl 2-(2-(4-cyanophenyl)-5-(furan-2-carbonyl)thiophen-3-yl)acetate] | 183 | 247 | 
22 | COc1ccc(C(=O)c2cc(CC(=O)NCCO)c(-c3ccc(Cl)cc3)s2)cc1 [compound 96, 2-(2-(4-chlorophenyl)-5-(4-methoxybenzoyl)thiophen-3-yl)-N-(2-hydroxyethyl)acetamide] | 177 |  | 
23 | CN(C)CCNC(=O)Cc1cc(C(=O)c2ccco2)sc1-c1cccc(C#N)c1 [compound 142, 2-(2-(3-cyanophenyl)-5-(furan-2-carbonyl)thiophen-3-yl)-N-(2-(dimethylamino)ethyl)acetamide] | 117 | 175 | 
24 | CC(C)OC(=O)Cc1cc(C(=O)c2ccco2)sc1-c1ccc(Cl)c(Cl)c1 [compound 39, isopropyl 2-(2-(3,4-dichlorophenyl)-5-(furan-2-carbonyl)thiophen-3-yl)acetate] | 143 | 389 | 
25 | CCOC(=O)Cc1cc(C(=O)c2ccoc2)sc1-c1ccc(OC)cc1 [compound 28, ethyl 2-(5-(furan-3-carbonyl)-2-(4-methoxyphenyl)thiophen-3-yl)acetate] | 136 | 138 | 
26 | COc1ccc(C(=O)c2cc(CC(=O)N3CCN(C)CC3)c(-c3ccc(Cl)cc3)s2)cc1 [compound 93, 2-(2-(4-chlorophenyl)-5-(4-methoxybenzoyl)thiophen-3-yl)-1-(4-methylpiperazin-1-yl)ethanone] | 149 |  | 
